Data reported in US20250268903A1, “RXFP1 AGONISTS” (BRISTOL-MYERS SQUIBB COMPANY, priority 2021, published 2025).

These compounds were tested against T1, human RXFP1 (Homo sapiens, UniProt Q9HBX9) (assay: hRXFP1 HEK293 cAMP assay (HTRF)). Settings: HEK293 cells stably expressing human RXFP1, 30 min at room temperature.
T1 construct: expressed in transfected cells
T1 sequence (Q9HBX9 1-757): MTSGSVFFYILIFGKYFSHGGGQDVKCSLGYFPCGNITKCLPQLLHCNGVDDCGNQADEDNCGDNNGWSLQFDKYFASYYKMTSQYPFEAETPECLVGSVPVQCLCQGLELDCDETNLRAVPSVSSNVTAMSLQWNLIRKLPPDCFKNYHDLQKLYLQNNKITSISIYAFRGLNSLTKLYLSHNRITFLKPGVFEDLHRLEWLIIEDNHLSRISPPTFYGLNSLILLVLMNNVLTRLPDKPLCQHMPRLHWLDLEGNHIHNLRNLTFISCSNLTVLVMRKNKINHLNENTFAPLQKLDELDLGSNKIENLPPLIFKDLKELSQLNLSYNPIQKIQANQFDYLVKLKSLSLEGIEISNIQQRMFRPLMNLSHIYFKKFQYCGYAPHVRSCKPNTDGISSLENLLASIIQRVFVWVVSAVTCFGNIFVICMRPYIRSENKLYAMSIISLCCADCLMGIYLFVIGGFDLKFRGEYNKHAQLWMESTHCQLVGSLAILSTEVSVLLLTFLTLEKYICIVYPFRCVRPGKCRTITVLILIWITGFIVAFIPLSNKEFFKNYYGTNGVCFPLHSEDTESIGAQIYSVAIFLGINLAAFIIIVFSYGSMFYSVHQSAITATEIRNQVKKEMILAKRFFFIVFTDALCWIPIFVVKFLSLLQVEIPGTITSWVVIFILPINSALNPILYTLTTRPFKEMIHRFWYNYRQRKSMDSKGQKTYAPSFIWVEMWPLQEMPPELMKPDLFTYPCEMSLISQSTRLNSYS
Format: cell-based
In short: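 Intracellular cAMP was read by HTRF, with potency fitted to a 4-parameter logistic curve. Compound exposure (0.010 nM–50 μM final, 2% DMSO) lasted 30 min at room temperature. Cells were hRXFP1-HEK293 at 1500 per well in IBMX-containing (0.5 mM) HEPES-buffered HBSS.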

SMILES | EC50 [nM]
COc1ccc(COCC(=O)O)cc1C(=O)N[C@@H]1C2CCC(/C2=C/c2ccccc2)[C@@H]1C(=O)Nc1ccc(F)c(C(F)(F)F)c1 (stereo partly drawn) [Example 29, 2-[(3-{[(2R,3S,7Z)-3-{[4-fluoro-3-(trifluoromethyl)phe-nyl]carbamoyl}-7-(phenylmethylidene)bicyclo[2.2.1]heptan-2-yl]carbamoyl}-4-methoxyphenyl)meth-oxy]acetic acid] | 400
COc1ccc(COCCC(=O)O)cc1C(=O)N[C@@H]1C2CCC(C2=C(C)C)[C@@H]1C(=O)Nc1ccc(F)c(C(F)(F)F)c1 (stereo partly drawn) [Example 30, 3-[(3-{[(2R,3S)-3-{[4-fluoro-3-(trifluoromethyl)phe-nyl]carbamoyl}-7-(propan-2-ylidene)bicyclo[2.2.1]heptan-2-yl]carbamoyl}-4-methoxyphenyl)meth-oxy]propanoic acid] | 710
COC/C=C/c1ccc(OC)c(C(=O)N[C@@H]2C3CCC(C3=C(C)C)[C@@H]2C(=O)Nc2ccc(F)c(C(F)(F)F)c2)c1 (stereo partly drawn) [Example 31, (2S,3R)—N-[4-fluoro-3-(trifluoromethyl)phenyl]-3-{2-methoxy-5-[(1E)-3-methoxyprop-1-en-1-yl]benzamido}-7-(propan-2-ylidene) bicyclo[2.2.1]heptane-2-carboxamide] | 180
COc1ccc(/C=C/CCO)cc1C(=O)N[C@@H]1C2CCC(C2=C(C)C)[C@@H]1C(=O)Nc1ccc(F)c(C(F)(F)F)c1 (stereo partly shown) [Example 32] | 740
COC(=O)OCC/C=C/c1ccc(OC)c(C(=O)N[C@H]2[C@@H](C(=O)Nc3ccc(F)c(C(F)(F)F)c3)[C@H]3CC[C@@H]2C3=C(C)C)c1 [Example 33, (E)-4-(3-(((1R,2R,3S,4R)-3-((4-fluoro-3-(trifluoromethyl)phenyl)carbamoyl)-7-(propan-2-ylidene)bicyclo[2.2.1]heptan-2-yl)carbamoyl)-4-methoxyphenyl) but-3-en-1-yl methyl carbonate] | 580
COc1ccc(C2=CC(=O)CCC2)cc1C(=O)N[C@@H]1C2CCC(/C2=C/C(F)(F)F)[C@@H]1C(=O)Nc1ccc(F)c(C(F)(F)F)c1 (stereo partly shown) [Example 34] | 470
COc1ccc(C2CCCCC2)cc1C(=O)N[C@@H]1C2CCC(/C2=C/C(F)(F)F)[C@@H]1C(=O)Nc1ccc(F)c(C(F)(F)F)c1 (stereo partly drawn) [Example 39, (2S,3R,7Z)-3-(5-cyclohexyl-2-methoxybenzamido)-N-[4-fluoro-3-(trifluoromethyl)phenyl]-7-(2,2,2-trifluoroethylidene) bicyclo[2.2.1]heptane-2-carboxamide] | 611
COc1ccc(C2CCCC2)cc1C(=O)N[C@@H]1C2CCC(/C2=C/C(F)(F)F)[C@@H]1C(=O)Nc1ccc(F)c(C(F)(F)F)c1 (stereo partly drawn) [Example 47, (2S,3R,7Z)-3-(5-cyclopentyl-2-methoxybenzamido)-N-[4-fluoro-3-(trifluoroemthyl)phe-nyl]-7-(2,2,2-trifluoroethylidene) bicyclo[2.2.1]heptane-2-carboxamide] | 926
COc1ccc(CCO)cc1C(=O)NC1C2CCC(/C2=C/C(F)(F)F)[C@@H]1C(=O)Nc1ccc(F)c(C(F)(F)F)c1 (stereo partly shown) [Example 55] | 781
COc1ccc(C#CCO)cc1C(=O)N[C@@H]1C2CCC(/C2=C/C(F)(F)F)[C@@H]1C(=O)Nc1ccc(F)c(C(F)(F)F)c1 (stereo partly shown) [Example 68] | 144
COc1ccc(C#CCOC(=O)Nc2ccccc2)cc1C(=O)N[C@@H]1C2CCC(/C2=C/C(F)(F)F)[C@@H]1C(=O)Nc1ccc(F)c(C(F)(F)F)c1 (stereo partly drawn) [Example 69, 3-(3-{[(2R,3S,7Z)-3-{[4-fluoro-3-(trifluoromethyl)phe-nyl]carbamoyl}-7-(2,2,2-trifluoroethylidene)bi-cyclo[2.2.1]heptan-2-yl]carbamoyl}-4-methoxyphenyl)prop-2-yn-1-yl N-phenylcarbamate] | 95
COc1ccc(C#CC(C)(C)O)cc1C(=O)N[C@@H]1C2CCC(/C2=C/C(F)(F)F)[C@@H]1C(=O)Nc1ccc(F)c(C(F)(F)F)c1 (stereo partly drawn) [Example 70, (2S,3R,7Z)-N-[4-fluoro-3-(trifluoromethyl)phe-nyl]-3-[5-(3-hydroxy-3-methylbut-1-yn-1-yl)-2-methoxybenzamido]-7-(2,2,2-trifluoroethylidene)bi-cyclo[2.2.1]heptane-2-carboxamide] | 309
COc1ccc(C#C[C@H](C)O)cc1C(=O)N[C@@H]1C2CCC(/C2=C/C(F)(F)F)[C@@H]1C(=O)Nc1ccc(F)c(C(F)(F)F)c1 (stereo partly drawn) [Example 71, (2S,3R,7Z)-N-[4-fluoro-3-(trifluoromethyl)phe-nyl]-3-{5-[(3S)-3-hydroxybut-1-yn-1-yl]-2-methoxybenzamido}-7-(2,2,2-trifluoroethylidene)bi-cyclo[2.2.1]heptane-2-carboxamide] | 118
COc1ccc(C#C[C@@H](C)O)cc1C(=O)N[C@@H]1C2CCC(/C2=C/C(F)(F)F)[C@@H]1C(=O)Nc1ccc(F)c(C(F)(F)F)c1 (stereo partly drawn) [Example 72, (2S,3R,7Z)-N-[4-fluoro-3-(trifluoromethyl)phe-nyl]-3-{5-[(3R)-3-hydroxybut-1-yn-1-yl]-2-methoxybenzamido}-7-(2,2,2-trifluoroethylidene)bi-cyclo[2.2.1]heptane-2-carboxamide] | 134
COc1ccc(C#C[C@@H](C)O)cc1C(=O)N[C@@H]1C2CCC(/C2=C/C2CC2)[C@@H]1C(=O)Nc1ccc(F)c(C(F)(F)F)c1 (stereo partly drawn) [Example 73, (2S,3R,7Z)-7-(cyclopropylmethyli-dene)-N-[4-fluoro-3-(trifluoromethyl)phe-nyl]-3-{5-[(3R)-3-hydroxybut-1-yn-1-yl]-2-methoxybenzamido} bicyclo[2.2.1]heptane-2-carboxamide] | 88
COc1cc(C#CCO)ccc1C(=O)N[C@@H]1C2CCC(/C2=C/C(F)(F)F)[C@@H]1C(=O)Nc1ccc(F)c(C(F)(F)F)c1 (stereo partly drawn) [Example 74, (2S,3R,7Z)-N-[4-fluoro-3-(trifluoromethyl)phe-nyl]-3-[4-(3-hydroxyprop-1-yn-1-yl)-2-methoxybenzamido]-7-(2,2,2-trifluoroethylidene)bi-cyclo[2.2.1]heptane-2-carboxamide] | 3550
C#Cc1ccc(OC)c(C(=O)N[C@@H]2C3CCC(/C3=C/C(F)(F)F)[C@@H]2C(=O)Nc2ccc(F)c(C(F)(F)F)c2)c1 (stereo partly drawn) [Example 75, (2S,3R,7Z)-3-(5-ethynyl-2-methoxybenzamido)-N-[4-fluoro-3-(trifluoromethyl)phe-nyl]-7-(2,2,2-trifluoroethylidene)bi-cyclo[2.2.1]heptane-2-carboxamide] | 91
COc1ccc(C#CCCO)cc1C(=O)N[C@@H]1C2CCC(/C2=C/C(F)(F)F)[C@@H]1C(=O)Nc1ccc(F)c(C(F)(F)F)c1 (stereo partly drawn) [Example 76, (2S,3R,7Z)-N-[4-fluoro-3-(trifluoromethyl)phe-nyl]-3-[5-(4-hydroxybut-1-yn-1-yl)-2-methoxybenzamido]-7-(2,2,2-trifluoroethylidene)bi-cyclo[2.2.1]heptane-2-carboxamide] | 66
COc1ccc(C#CCCCO)cc1C(=O)N[C@@H]1C2CCC(/C2=C/C(F)(F)F)[C@@H]1C(=O)Nc1ccc(F)c(C(F)(F)F)c1 (stereo partly drawn) [Example 77, (2S,3R,7Z)-N-[4-fluoro-3-(trifluoromethyl)phe-nyl]-3-[5-(5-hydroxypent-1-yn-1-yl)-2-methoxybenzamido]-7-(2,2,2-trifluoroethylidene)bi-cyclo[2.2.1]heptane-2-carboxamide] | 62
